Reference: PMC11979685, “Synthesis of Derivatives of the Antibiotic Albicidin: The N‐Terminal Fragment as Key to Control Potency and Resistance Mediated by the Binding Protein AlbA” (Chemistry (Weinheim an Der Bergstrasse, Germany), 2025)
Converted amounts (≈) assume the structure as drawn. Where two headings read alike, the source gives them in different places.

Legend:
Test in all cases: MIC determination (broth microdilution)
Type in all cases: cell-based
[1] = test system: Bacillus subtilis DSM 10; details: DSM10, read-out: MIC B. sub.
Description: (§1) After completing the syntheses, the antibacterial activity of A‐variations 4–24 was assessed by determination of MIC values against a basic set of gram‐negative and gram‐positive bacteria (Table 1). The monocyclic derivatives 4–8 featuring a cyano‐, trifluoromethyl‐, methoxy‐ and fluoro‐ substituent in para‐position were very active against the gram–negative E. coli and S. typhimurium strains with MIC values in the same range as 3rd Gen albicidin 3 or ciprofloxacin which is the gold standard for gyrase inhibitors. […] These findings are in agreement with previous studies showing good activities for cyano, trifluoromethyl, methoxy and fluoro substituents in the para‐position of different aromatic rings in the building block A.[12, 13] The activity of the monocyclic derivatives 4–8 against the gram‐positive strains B. subtilis and M. luteus were similar but slightly less pronounced compared to the lead structure 3.
(§2) 1.1 Determination of Minimal Inhibitory Concentrations (MIC)
(§3) Minimal inhibitory concentration (MIC) against selected bacterial strains values were determined according to the ninth edition of the Approved Standard M07-A9.[1] 20 μL of cryo stocks of bacterial strains were suspended in 20 mL LB medium (Lysogeny broth: 10 g/L peptone, 5 g/L yeast extract, 5 g/L NaCl). Following incubation overnight at 37°C, 200 rpm, the test inoculum was adjusted by 0.5 McFarland Standard in cation adjusted Mueller-Hinton broth (BBLTM Mueller-Hinton Broth II, Becton, Dickinson and Company, New Jersey, USA) to approximately 1x10^6 CFU mL-1. 95 μL of the bacterial inoculum were applied per well of a 96-well plate. Albicidin and albicidin derivatives 3−24 were dissolved in DMSO (100%) to an initial concentration of 2560 μg/mL and serially diluted in DMSO (100%). Initial solution and serial dilutions of Ciprofloxacin were prepared in 0.1 N HCL, respectively. 5 μL of each antibiotic dilution were added to the microdilution tray to reach albicidin concentrations of 128 μg/mL to 0.016 μg/mL per well. One row of each well plate served as a growth control without antibiotic substances and another row of the microdilution tray served as sterility control (only MHB II - media). The antimicrobial effect of the solvent (DMSO) was tested by adding 5 μL DMSO to several wells. Purity check and cell titer control were performed according to International S tandard M07-A9 on Mueller-Hinton II Agar (Mueller Hinton II Broth, 15 g/L agar-agar). Both microdilution trays and agar plates were incubated at 30−37°C for 16 h and subsequently analyzed for growth inhibition by naked eye. The following primary panel of microorganisms were purchased from German Collection of Microorganisms and Cell Cultures (DSMZ):
(§4) Escherichia coli DSM 1116
(§5) Micrococcus luteus DSM 1790
(§6) Mycobacterium phlei DSM 750
(§7) Salmonella typhimurium TA100 was kindly provided by Prof. Dr. Vera Meyer (Technische Universität Berlin). […]
(§8) was purchased as part of the single gene knockout library of E. coli K12 BW25113 (Keio collection) from Horizon Discovery group plc (Cambridge, UK).

[2] = test system: E. coli BW25113
Description: as §1, §2, §3, §4, §5, §6, §7, §8

[3] = test system: E. coli DSM1116
Description: as §1, §2, §3, §4, §5, §6, §7, §8

[4] = test system: Micrococcus luteus DSM 1790; details: DSM1790, read-out: MIC M. luteus
Description: as §1, §2, §3, §4, §5, §6, §7, §8

[5] = test system: Mycobacterium phlei DSM 750
Description: as §1, §2, §3, §4, §5, §6, §7, §8

[6] = Escherichia coli, BW25113; read-out: MIC E. coli BW25113
[7] = Escherichia coli, DSM1116; read-out: MIC E. coli DSM1116
[8] = Mycolicibacterium phlei, DSM750; read-out: MIC M. phlei
[9] = Escherichia coli, BW25113, read-out: MIC E. coli BW25113
[10] = Escherichia coli, DSM1116, read-out: MIC E. coli DSM1116

Row | Compound | MIC [1] [µg/mL] | MIC [2, 6] [µg/mL] | MIC [3, 7] [µg/mL] | MIC [4] [µg/mL] | MIC [5, 8] [µg/mL] | MIC [2, 9] [µg/mL] | MIC [3, 10] [µg/mL] | MIC ([5]; Mycolicibacterium phlei, DSM750, read-out: MIC M. phlei) [µg/mL]
1 | COc1c(NC(=O)c2ccc(NC(=O)c3ccc(NC(=O)[C@H](Cc4c[nH]nn4)NC(=O)c4ccc(NC(=O)c5ccc(C#N)cc5)cc4)cn3)c(OC)c2O)ccc(C(=O)O)c1O [compound 4] | 0.125 (≈ 0.146 µM) | ≤ 0.016 | 0.031 (≈ 0.0363 µM) | 0.125 (≈ 0.146 µM) | 4 (≈ 4.68 µM) |  |  | 
2 | COc1c(NC(=O)c2ccc(NC(=O)c3ccc(NC(=O)[C@H](Cc4c[nH]nn4)NC(=O)c4ccc(NC(=O)[C@@H](C)Oc5ccc(O)cc5)cc4)cn3)c(OC)c2O)ccc(C(=O)O)c1O [compound 9] | 1 (≈ 1.12 µM) | 0.063 (≈ 0.0708 µM) | 0.063 (≈ 0.0708 µM) | 2 (≈ 2.25 µM) |  |  |  | 
3 | COc1c(NC(=O)c2ccc(NC(=O)c3ccc(NC(=O)[C@H](Cc4c[nH]nn4)NC(=O)c4ccc(NC(=O)c5ccc6ccccc6n5)cc4)cn3)c(OC)c2O)ccc(C(=O)O)c1O [compound 11] | ≤ 0.016 | ≤ 0.016 | ≤ 0.016 | ≤ 0.016 | 0.5 (≈ 0.568 µM) |  |  | 
4 | COc1c(NC(=O)c2ccc(NC(=O)c3ccc(NC(=O)[C@H](Cc4c[nH]nn4)NC(=O)c4ccc(NC(=O)c5cc6ccccc6cn5)cc4)cn3)c(OC)c2O)ccc(C(=O)O)c1O [compound 12] | 0.063 (≈ 0.0715 µM) |  |  | 0.063 (≈ 0.0715 µM) |  | ≤ 0.016 | ≤ 0.016 | 1 (≈ 1.14 µM)
5 | COc1c(NC(=O)c2ccc(NC(=O)c3ccc(NC(=O)[C@H](Cc4c[nH]nn4)NC(=O)c4ccc(NC(=O)c5cnc6ccccc6c5)cc4)cn3)c(OC)c2O)ccc(C(=O)O)c1O [compound 13] | 0.125 (≈ 0.142 µM) | ≤ 0.016 | 0.031 (≈ 0.0352 µM) | 0.125 (≈ 0.142 µM) | 1 (≈ 1.14 µM) |  |  | 
6 | COc1c(NC(=O)c2ccc(NC(=O)c3ccc(NC(=O)[C@H](Cc4c[nH]nn4)NC(=O)c4ccc(NC(=O)c5ccc6ncccc6c5)cc4)cn3)c(OC)c2O)ccc(C(=O)O)c1O [compound 14] | 0.25 (≈ 0.284 µM) | ≤ 0.016 | 0.016 (≈ 0.0182 µM) | 0.125 (≈ 0.142 µM) | 4 (≈ 4.54 µM) |  |  | 
7 | COc1c(NC(=O)c2ccc(NC(=O)c3ccc(NC(=O)[C@H](Cc4c[nH]nn4)NC(=O)c4ccc(NC(=O)c5c[nH]c6ccccc6c5=O)cc4)cn3)c(OC)c2O)ccc(C(=O)O)c1O [compound 17] | ≤ 0.016 | 0.063 (≈ 0.0702 µM) | 0.031 (≈ 0.0346 µM) | ≤ 0.016 | 8 (≈ 8.92 µM) |  |  | 
8 | CCn1cc(C(=O)Nc2ccc(C(=O)N[C@@H](Cc3c[nH]nn3)C(=O)Nc3ccc(C(=O)Nc4ccc(C(=O)Nc5ccc(C(=O)O)c(O)c5OC)c(O)c4OC)nc3)cc2)c(=O)c2ccc(C)nc21 [compound 18] | 0.063 (≈ 0.067 µM) | 0.063 (≈ 0.067 µM) | 0.031 (≈ 0.033 µM) | 0.031 (≈ 0.033 µM) | ≥ 8 |  |  | 
9 | CCn1cc(C(=O)Nc2ccc(C(=O)N[C@@H](Cc3c[nH]nn3)C(=O)Nc3ccc(C(=O)Nc4ccc(C(=O)Nc5ccc(C(=O)O)c(O)c5OC)c(O)c4OC)nc3)cc2)c(=O)c2cc3c(cc21)OCO3 [compound 19] | 0.031 (≈ 0.032 µM) | ≤ 0.016 | 0.016 (≈ 0.0165 µM) | 0.016 (≈ 0.0165 µM) | 0.25 (≈ 0.258 µM) |  |  | 
10 | COc1c(NC(=O)c2ccc(NC(=O)c3ccc(NC(=O)[C@H](Cc4c[nH]nn4)NC(=O)c4ccc(NC(=O)c5cc(=O)c6cc(F)ccc6o5)cc4)cn3)c(OC)c2O)ccc(C(=O)O)c1O [compound 20] | 0.125 (≈ 0.136 µM) | ≤ 0.016 | ≤ 0.016 | 0.063 (≈ 0.0688 µM) | 2 (≈ 2.18 µM) |  |  | 
11 | COc1c(NC(=O)c2ccc(NC(=O)c3ccc(NC(=O)[C@H](Cc4c[nH]nn4)NC(=O)c4ccc(NC(=O)c5cc6cc(O)ccc6[nH]5)cc4)cn3)c(OC)c2O)ccc(C(=O)O)c1O [compound 21] | 1 (≈ 1.13 µM) |  | 0.063 (≈ 0.0712 µM) | 1 (≈ 1.13 µM) | 4 (≈ 4.52 µM) | 0.125 (≈ 0.141 µM) |  | 
12 | COc1c(NC(=O)c2ccc(NC(=O)c3ccc(NC(=O)[C@H](Cc4c[nH]nn4)NC(=O)c4ccc(NC(=O)c5ccc6ncsc6c5)cc4)cn3)c(OC)c2O)ccc(C(=O)O)c1O [compound 22] | 0.125 (≈ 0.141 µM) | ≤ 0.016 | ≤ 0.016 | 0.125 (≈ 0.141 µM) | 2 (≈ 2.26 µM) |  |  | 
13 | COc1c(NC(=O)c2ccc(NC(=O)c3ccc(NC(=O)[C@H](Cc4c[nH]nn4)NC(=O)c4ccc(NC(=O)c5ccc6nc[nH]c6c5)cc4)cn3)c(OC)c2O)ccc(C(=O)O)c1O [compound 23] | 2 (≈ 2.3 µM) |  |  | 2 (≈ 2.3 µM) | 8 (≈ 9.2 µM) | 0.125 (≈ 0.144 µM) | 0.125 (≈ 0.144 µM) | 
14 | COc1c(NC(=O)c2ccc(NC(=O)c3ccc(NC(=O)[C@H](Cc4c[nH]nn4)NC(=O)c4ccc(NC(=O)c5ccc6nn[nH]c6c5)cc4)cn3)c(OC)c2O)ccc(C(=O)O)c1O [compound 24] | 0.5 (≈ 0.574 µM) | 0.125 (≈ 0.144 µM) | 0.125 (≈ 0.144 µM) | 0.5 (≈ 0.574 µM) | 8 (≈ 9.19 µM) |  |  | 
